The subject of assay [1] is MRSA in the nares. As to the kind of experiment: Nasal colonization human study Part One, quantitative swab cultures, MRSA. The class given is in vivo, S. aureus. To be noted: for MRSA Average: laser w/ drug arm, one line per patient. As for the experimental part: (§1) This investigational protocol was an open-label study of subjects who are colonized with MRSA in the nares (nostril). The study was done in two parts.
(§2) In this human study, three arms were produced. […] This was done on day 1 and again on day three; and Arm #3: ⅓ of the subjects were treated with the laser and then a topical antibiotic three times a day for five days. Prior to enrollment in this study, prospective subjects met all of the following criteria: age≧18 years and ≦70 years of age; previous positive MRSA culture; negative urine pregnancy test or post-menopausal for one year; willing to comply with study requirements, including return visits and self-application of topical antibiotics; and willing to provide informed consent to participate. Prospective subjects were excluded from this study if any of the following criteria were met: pregnancy; patients who are severely immunocompromised (such as may occur in AIDS, renal transplant regimens, immunosuppressed states consequent to malignancy or agents used in rendering oncologic care, or who suffer from end stage renal disease); diabetic patients; allergy to antimicrobials being used in the study (group 3).
(§3) All participants underwent an initial quantitative assessment for nasal carriage of S. aureus, during their first visit. Each participant had the anterior nares (each nostril) sampled for culture with a circular movement (three rotations on each side) of a sterile wood applicator plain Rayon® tipped swab in each nostril and placed in a labled tube. 2 ml of room temp phosphate buffered saline was placed in the tube after the removal of the swab (to completely cover the swab in the tube). Each swab was then placed back in the tube and the tube was then vortexed for 15 seconds to disperse isolates of MRSA and/or MSSA into the PBS solution. Aliquots of PBS from the tube were plated in the following manner: 100 μl from each tube was lawn plated in triplicate (3×) on selective Chromogenic MRSA And MSSA agar. Plates were placed in incubator within 30 minutes of the plating procedure, and colonies were counted manually, and recorded 18 hrs after plating.
(§4) On day one of the study, all subjects underwent this exact procedure in arms 1 and 2 of the study two minutes before the laser procedure. They again were sampled in the same manner 2 minutes after the laser procedure. In the third arm of the study, they were swabbed two minutes before the procedure and the first antibiotic administration was completed after the laser therapy. The post/laser swab sample was taken for this arm 20 min later.
(§5) On day three of the study, all subjects from arms one two and three underwent the exact same procedures as day 1 of the study.
(§6) On day five all subjects from all arms underwent just one swabbing per nostril with the exact same sampling procedure one time.
(§7) Application of H202: 3% OTC hydrogen peroxide was applied to a cotton pledget for application to the subject prior to irradiation. This was inserted in the nose for 120 seconds and then removed. The subjects were then given doses of phototherapeutic near infrared radiation as described. Application of generic topical Antimicrobial: The subjects were first given doses of phototherapeutic near infrared radiation as described. […] The swab was inserted approximately 1 cm in to the anterior nares and rotated 360 degrees several times and removed. Patients were instructed to perform the exact application procedure 3 times a day for the remaining 5 days.
(§8) The NOVEON™ laser was used for two (2) six-minute treatments in each nostril on day (1) and day (3) of the study.
(§9) The laser was calibrated before the first treatment of the day. Intermittent temperature testing of the treatment site was performed on each subject using a noncontact infrared thermometer (Raytek Minitemp), 30-60 second intervals.

For assay [2], the system named is MRSA (ATCC BAA-43). As to the kind of experiment: MRSA/antimicrobial potentiation, CFU on TSB agar with and without antibiotic after laser (Example XXII, Experiments 1-4). It is filed as cell-based, Staphylococcus aureus subsp. aureus. The conditions noted are these: for CFU/ml / CFU (single plate count) / AVG (CFU): Drug yes; for CFU (single plate count): agar with 30 μg/ml methicillin, 0.5 μg/ml penicillin G or 4 μg/ml erythromycin, 24 hrs 37° C., plates 1-5; for AVG (CFU): mean of 5 plates; for Drug Effect: CFU with drug relative to without drug; for Laser Effect (+Drug): Exp vs Cont, both with drug. As for the experimental part: Four separate experiments have been performed.
Eight different laser dosages were used to treat a saline-suspension of logarithmically growing MRSA, labeled A1 to H1.
The treated and a control untreated suspension were diluted and plated in triplicate on trypic soy agar with or without 30 μg/ml methicillin After 24 hrs of growth at 37° C. colonies were counted.
CFU (colony forming units) were compared between the plates with and without methicillin for both control (untreated) and treated MRSA.
The treated and a control untreated suspension were diluted and plated in triplicate on trypic soy agar with or without 30 μg/mlmethicillin.
After 24 hrs of growth at 37° C. colonies were counted.
The treated and a control untreated suspension were diluted and plated in pentuplicate on trypic soy agar with or without 30 μg/ml methicillin.

The subject of assay [3] is MRSA. The experiment in a line: CFU counts of MRSA plated on agar with antibiotic after sub-lethal NIMELS laser (Examples IX-XII). The class given is cell-based, Staphylococcus aureus. To be noted: for MRSA colony count, EXPERIMENTAL: sub-lethal NIMELS laser. From the text:
The following parameters illustrate the general bacterial methods according to the invention as applied to MRSA for the in vitro Experiments V and VIII-XII.
The null hypothesis is μ1−μ2=0 and μ1−μ3=0 where:
a) μ1 is sub-lethal dosimetry from the NIMEL laser system on MRSA as a control and;
The null hypothesis is μ1−μ2=0 and μ1−μ3=0 where: • a) μ1 is sub-lethal dosimetry from the NIMEL laser system on MRSA as a control and; • b)μ2 is the same sub-lethal dosimetry from the NIMEL laser system on MRSA with the addition of tetracycline at resistant MIC just below effectiveness level and; • c) μ3 is the same sub-lethal dosimetry from the NIMEL laser system on MRSA with the addition of rifampin at resistant MIC just below effectiveness level.
The null hypothesis is μ1−μ2=0 and μ1−μ3=0 where: a) μ1 is sub-lethal dosimetry from the NIMEL laser system on MRSA as a control and; b)μ2 is the same sub-lethal dosimetry from the NIMEL laser system on MRSA with the addition of methicillin at resistant MIC just below effectiveness level and; […]

Assay [4] deals with MSSA in the nares. As to the kind of experiment: Nasal colonization human study Part One, quantitative swab cultures, MSSA. The conditions noted are these: laser w/ drug arm, one line per patient. The class given is in vivo, S. aureus. As for the experimental part: as §1, §2, §3, §4, §5, §6, §7, §8, §9
Setting [5] is: Cont (no laser), groups A4/C4/E4.
Where [6] appears, read: Cont (no laser), groups B4/D4/F4.
Setting [7] is: Exp (laser 870+930 at 5 W 14 min, then 930 at 6 W 9 min), groups B4/D4/F4.
Where [8] appears, read: Exp (laser 870+930 at 5.5 W 12 min, then 930 at 8 W 6 min), groups A4/C4/E4.
[9] abbreviates: Initial Analysis, Post-treatment swab, left nostril.
[10] abbreviates: Initial Analysis, Post-treatment swab, right nostril.
Setting [11] is: Initial Analysis, Pre swab (baseline), left nostril, mean of triplicate plates.
Where [12] appears, read: Initial Analysis, Pre swab (baseline), right nostril.
Where [13] appears, read: Second Analysis, Post-treatment swab, left nostril.
The mark [14] stands for this setting: Second Analysis, Post-treatment swab, right nostril.
Setting [15] is: Second Analysis, Pre swab, left nostril.
Where [16] appears, read: Second Analysis, Pre swab, right nostril.
Where [17] appears, read: Third Analysis, Swab, left nostril.
[18] abbreviates: Third Analysis, Swab, right nostril.

From patent publication US20110295343A1, “NEAR-INFRARED ELECTROMAGNETIC MODIFICATION OF CELLULAR STEADY-STATE MEMBRANE POTENTIALS” (priority 2008, published 2011) come the findings set out here.

The structures appear in SMILES notation. Several values for one entry are separate records, joined by “and”; a condition that tells them apart may be missing. Equal values may be shown once.

In the case of `OO` [H2O2, hydrogen peroxide], the “outcome of Laser plus H2O2 arm on nasal colonization” value in assay [1] (humans, topical 3% H2O2 120 seconds, then laser, day 1 and day 3) is on record as “some transient benefit in some of the patients, but no obvious long-term efficacy”.

On to `CC1(C)S[C@@H]2[C@H](NC(=O)Cc3ccccc3)C(=O)N2[C@H]1C(=O)O` [Penicillin, penicillin G], for which the CFU/ml in assay [2] (setting [5]) is on record as 3.25E+08 CFU/ml; in assay [2] (setting [6]), 3.98E+08 CFU/ml; in assay [2] (setting [7]), 7.14E+07 CFU/ml; in assay [2] (setting [8]) it was 9.12E+07 CFU/ml. The “CFU (single plate count)” value in assay [2] (setting [5]) is 106 CFU and 99 CFU and 102 CFU and 113 CFU and 122 CFU; in assay [2] (setting [6]), 101 CFU and 111 CFU and 138 CFU and 132 CFU and 182 CFU. Further, the “AVG (CFU)” value in assay [2] (setting [5]) is recorded as 108.4 CFU; in assay [2] (setting [6]) it was 132.8 CFU; in assay [2] (setting [7]), 23.8 CFU; in assay [2] (setting [8]), 30.4 CFU. Moreover, the “Drug Effect” value in assay [2] (setting [5]) was found to be 0.75; in assay [2] (setting [6]), 1.07; in assay [2] (setting [7]), 0.31; in assay [2] (setting [8]), 0.34. Moreover, the “Laser Effect (+Drug)” value in assay [2] (laser 870+930 at 5 W 14 min, then 930 at 6 W 9 min, groups B4/D4/F4) is 0.18; in assay [2] (laser 870+930 at 5.5 W 12 min, then 930 at 8 W 6 min, groups A4/C4/E4), 0.28. Besides, the “synergistic effect of NIMELS with antibiotic in growth inhibition of MRSA colonies” value in assay [2] (FIG. 17) was “being potentiated by sub-lethal NIMELS dosimetry”. For the same compound, the “effect of sub-lethal NIMELS irradiation on antibiotic action against MRSA colonies (words)” value in assay [3] (antibiotic at resistant MIC just below effectiveness level) is “successful reversal of MRSA resistance”.

On to `OO` [Peroxide], for which the “s. aureus Average” value in assay [4] (setting [9]) was 0 CFU (2×) and 20 CFU and 1 CFU; in assay [4] (setting [10]) it was 0 CFU and 506 CFU and 146 CFU and 3272 CFU; in assay [4] (setting [11]) it was 1 CFU and 53 CFU and 17 CFU and 124 CFU; in assay [4] (setting [12]), 0 CFU and 29 CFU and 285 CFU and 3996 CFU; in assay [4] (setting [13]) it was 0 CFU (3×) and 10 CFU; in assay [4] (setting [14]) it was 0 CFU and 126 CFU and 5 CFU and 3589 CFU. The “s. aureus Average” value in assay [4] (setting [15]) is 1 CFU and 206 CFU and 4 CFU and 12 CFU; in assay [4] (setting [16]) it was 1 CFU and 94 CFU and 257 CFU and 4373 CFU; in assay [4] (setting [17]) it was 1 CFU and 868 CFU and 28 CFU and 0 CFU; in assay [4] (setting [18]) it was 1 CFU and 586 CFU and 52 CFU and 3493 CFU. Besides, the “MRSA Average” value in assay [1] (setting [9]) was 0 CFU (2×) and 22 CFU and 1 CFU; in assay [1] (setting [10]) it was 0 CFU (2×) and 455 CFU and 2752 CFU; in assay [1] (setting [11]) it was 0 CFU (2×) and 63 CFU and 4 CFU; in assay [1] (setting [12]) it was 0 CFU (2×) and 30 CFU and 4032 CFU; in assay [1] (setting [13]), 0 CFU (3×) and 12 CFU; in assay [1] (setting [14]), 0 CFU (2×) and 114 CFU and 3347 CFU. For the same compound, the “MRSA Average” value in assay [1] (setting [15]) is 0 CFU (2×) and 180 CFU and 17 CFU; in assay [1] (setting [16]) it was 0 CFU (2×) and 90 CFU and 3099 CFU; in assay [1] (setting [17]), 0 CFU (3×) and 827 CFU; in assay [1] (setting [18]), 0 CFU (2×) and 563 CFU and 3648 CFU.

For the compound `CO[C@H]1/C=C/O[C@@]2(C)Oc3c(C)c(O)c4c(O)c(c(/C=N/N5CCN(C)CC5)c(O)c4c3C2=O)NC(=O)/C(C)=C\C=C\[C@H](C)[C@H](O)[C@@H](C)[C@@H](O)[C@@H](C)[C@H](OC(C)=O)[C@@H]1C` [Rifampin], the “MRSA colony count, CONTROL” value in assay [3] (no laser, agar with rifampin 90 ug/ml, samples E1, E2, E3, 5 replicates each) is 183 and 210 (3×) and 166 and 228 and 188 and 274 and 180 and 240 and 288 and 280 and 290 and 300. In assay [3] (agar with rifampin 90 ug/ml, samples E1, E2, E3, 5 replicates each), the “MRSA colony count, EXPERIMENTAL” value was 280 (2×) and 272 and 320 and 330 and 284 (2×) and 270 and 225 and 200 (2×) and 210 and 378.

For the compound `CN(C)[C@@H]1C(O)=C(C(N)=O)C(=O)[C@@]2(O)C(O)=C3C(=O)c4c(O)cccc4[C@@](C)(O)[C@H]3C[C@@H]12` [Tetracycline], the “MRSA colony count, CONTROL” value in assay [3] (no laser, agar with tetracyc. 4 ug/ml, samples E1, E2, E3, 5 replicates each) is 240 and 256 and 268 and 310 (2×) and 255 and 280 and 283 and 263 and 260 and 368 and 380 and 375 and 390. In assay [3] (agar with tetracyc. 4 ug/ml, samples E1, E2, E3, 5 replicates each), the “MRSA colony count, EXPERIMENTAL” value was 42 (2×) and 18 (2×) and 28 and 27 and 16 and 72 and 67 and 45 and 47 and 74 and 56 and 46 and 48.

In the case of `COc1cc(Cc2cnc(N)nc2N)cc(OC)c1OC` [Trimethoprim], the “MRSA colony count, CONTROL (no laser)” value in assay [3] (no laser, agar with trimeth 2 ug/ml, replicates B-4 1 to 5) is 213 and 198 and 240 and 220 and 145. For the same compound, the “MRSA colony count, EXPERIMENTAL” value in assay [3] (agar with trimeth 2 ug/ml, replicates B-4 1 to 5) was 100 and 110 and 125 and 138 and 115.
